Results published in PMC9241695, “Selective Metal Chelation by a Thiosemicarbazone Derivative Interferes with Mitochondrial Respiration and Ribosome Biogenesis in Candida albicans” (Microbiology Spectrum, 2022).
Values after ≈ are worked out from the molar mass of the structure shown.

Experiments:
C. albicans CA1 = test: Microbroth dilution MIC80; type: cell-based; settings: Candida albicans, CA1
From the text: (§1) Compound library. The thiosemicarbazone derivatives Triapine and COTI-2 were purchased from Med Chem Express (MCE). The other 87 thiosemicarbazones used in this study were previously synthesized by our collaborators (1, 2). Their structures are shown in Table 1 and Table S1 to help the reader clearly understand the relationship between structure and activity.
(§2) Strains and culture conditions. Clinically derived C. albicans isolates, including G5, F5, and Gu5, were kindly provided by Professor Joachim Morschhäuser of the University of Würzburg. Other clinical C. albicans isolates were kindly donated by Professor Qingguo Qi of Shandong University and Qianfoshan Hospital of Shandong Province Other Candida strains were obtained from Jinan Central Hospital.
(§3) The zap1 mutant and its complemented strain were kindly provided by Professor Aaron P. Mitchell of Carnegie Mellon University (3). The C. neoformans strains used in this study was kindly donated by Professor Guojian Liao of Southwest University and A. fumigatus strain used in this study was provided by Professor Ling Lu of Nanjing Normal University. Before in vitro and in vivo experiments, all C. albicans strains were grown on YPD agar plates. After culturing at 30°C for 24 h, colonies of each strain were cultured in liquid YPD medium at 30°C with continuous shaking […]
(§4) Antifungal susceptibility testing. To determine in vitro antifungal activities, the microbroth dilution method was carried out in RPMI1640 medium according to the guidelines of the Clinical and Laboratory Standards Institute (4, 5). The initial concentration in RPMI1640 medium was 1 × 10^3 CFU/mL for the C. albicans and C. neoformans suspensions but 1 × 10^4 CFU/mL for A. fumigatus. The range of final drug concentrations was 0.0156–64 μg/mL. The plates were incubated at35°C for 24 […]
(§5) h (for C. albicans, C. krusei, C. tropicalis, C. parapsilosis) or 48 h (for C. neoformans, A. fumigatus). The MIC was determined based on visible growth inhibition compared with the control. All experiments were performed in duplicate. […]

A. fumigatus 1161 = test: Microbroth dilution MIC80; type: cell-based; settings: Aspergillus fumigatus, 1161
From the text: as §1, §2, §3, §4, §5

C. albicans DSY654 = test: Microbroth dilution MIC80; type: cell-based; settings: Candida albicans
From the text: as §1, §2, §3, §4, §5

C. albicans CA3 = test: Microbroth dilution MIC80; type: cell-based; settings: Candida albicans, CA3
From the text: as §1, §2, §3, §4, §5

C. albicans F5 = test: Microbroth dilution MIC80; type: cell-based; settings: Candida albicans, F5
From the text: as §1, §2, §3, §4, §5

C. neoformans 108 = test: Microbroth dilution MIC80; type: cell-based; settings: Cryptococcus neoformans, 108
From the text: as §1, §2, §3, §4, §5

C. albicans 28A = test: Microbroth dilution MIC80; type: cell-based; settings: Candida albicans, 28A
From the text: as §1, §2, §3, §4, §5

C. albicans YEM13 = test: Microbroth dilution MIC80; type: cell-based; settings: Candida albicans
From the text: as §1, §2, §3, §4, §5

C. albicans 24g = test: Microbroth dilution MIC80; type: cell-based; settings: Candida albicans, 24G
From the text: as §1, §2, §3, §4, §5

C. albicans 28I = test: Microbroth dilution MIC80; type: cell-based; settings: Candida albicans, 28I
From the text: as §1, §2, §3, §4, §5

C. tropicalis CT2 = test: Microbroth dilution MIC80; type: cell-based; settings: Candida tropicalis, CT2
From the text: as §1, §2, §3, §4, §5

C. albicans YEM15 = test: Microbroth dilution MIC80; type: cell-based; settings: Candida albicans, YEM15
From the text: as §1, §2, §3, §4, §5

C. albicans 28D = test: Microbroth dilution MIC80; type: cell-based; settings: Candida albicans, 28D
From the text: as §1, §2, §3, §4, §5

C. albicans 11e = test: Microbroth dilution MIC80; type: cell-based; settings: Candida albicans, 11E
From the text: as §1, §2, §3, §4, §5

C. albicans CA4 = test: Microbroth dilution MIC80; type: cell-based; settings: Candida albicans, CA4
From the text: as §1, §2, §3, §4, §5

C. albicans 11f = test: Microbroth dilution MIC80; type: cell-based; settings: Candida albicans, 11F
From the text: as §1, §2, §3, §4, §5

C. neoformans H99 = test: Antifungal susceptibility testing, microbroth dilution MIC; type: cell-based; settings: Cryptococcus neoformans, H99; C. neoformans wild-type strain; 48 h; read-out: MIC (μg/mL) against fungi H99
From the text: as §1, §2
(§6) The zap1 mutant and its complemented strain were kindly provided by Professor Aaron P. Mitchell of Carnegie Mellon University (3). The C. neoformans strains used in this study was kindly donated by Professor Guojian Liao of Southwest University and A. fumigatus strain used in this study was provided by Professor Ling Lu of Nanjing Normal University. […]
as §4, §5

A. fumigatus AF293 = test: as above; type: cell-based; settings: Aspergillus fumigatus, AF293; standard strain of A. fumigatus; 48 h; read-out: MIC (μg/mL) against fungi AF293
From the text: as §1, §2, §6, §4, §5

C. albicans SC5314 [1] = test: as above; type: cell-based; settings: Candida albicans, SC5314; C. albicans wild-type strain; RPMI1640, 35°C, 24 h; read-out: MIC (μg/mL) against fungi SC5314
From the text: as §1, §2, §3, §4, §5

C. albicans G5 = test: microbe, parasite or virus in culture; type: cell-based; settings: Candida albicans, G5
From the text: as §1, §2, §3, §4, §5

C. albicans Gu5 = test: microbe, parasite or virus in culture; type: cell-based; settings: Candida albicans, GU5
From the text: as §1, §2, §3, §4, §5

[2] = Cytotoxicity testing (MTT); type: cell-based, human; settings: human, HepG2 cells (hepatocellular carcinoma cell line)
[3] = tested on: human hepatocellular carcinoma cell line HepG2; test: Cytotoxicity testing (MTT); type: cell-based; settings: ratio of IC50 against HepG2 to MIC80 against C. albicans SC5314
C. albicans SC5314 [4] = test: Minimal fungicidal concentration (MFC); type: cell-based; settings: Candida albicans, read-out: MFC against C. albicans SC5314
[5] = tested on: human bronchial epithelial cell line 16HBE; test: Cytotoxicity testing (MTT); type: cell-based; settings: ratio of IC50 against 16HBE to MIC80 against C. albicans SC5314
Protocol: (§7) h (for C. albicans, C. krusei, C. tropicalis, C. parapsilosis) or 48 h (for C. neoformans, A. fumigatus). The MIC was determined based on visible growth inhibition compared with the control. All experiments were performed in duplicate.
(§8) Cytotoxicity testing. The cell lines HK2 and 16HBE were used to evaluate the cytotoxicity of 19ak, 19k and 19t. Cells in DMEM containing 10% fetal bovine serum (Gibco) were seeded in 96-well tissue culture plates at a cell density of 1 × 10^4 cells/mL and incubated for 24 h to allow adhesion. The supernatant was then replaced with fresh DMEM containing various concentrations of 19ak, 19k and 19t. The plates were subsequently incubated for an additional 48 h at 37°C with 5% CO2, followed by the addition of 10 μL of MTT solution to each well and incubation at 37°C for 4 h.
(§9) The effects of the compounds on cell proliferation were detected by measuring the absorbance at 570 nm in a microplate reader (BioTek, VT, USA). Three independent experiments were conducted. […]

[6] = tested on: human renal epithelial cell line HK2; test: Cytotoxicity testing (MTT); type: cell-based; settings: ratio of IC50 against HK2 to MIC80 against C. albicans SC5314
Protocol: as §7, §8, §9

[7] = Cytotoxicity testing (MTT); type: cell-based, human; settings: human, 48 h, MTT
Protocol: as §7, §8, §9

C. krusei CK1 = test: Microbroth dilution MIC80; type: cell-based, Candida krusei; settings: Pichia kudriavzevii, CK1
From the text: as §1, §2, §3, §4, §5

C. parapsilosis CP001 = test: Microbroth dilution MIC80; type: cell-based, Candida parapsilosis; settings: Lodderomyces parapsilosis, CP001
From the text: as §1, §2, §3, §4, §5

`C/C(=N\NC(=S)Nc1ccc(Br)cc1)c1ccccn1` [Compound 19t] showed an MIC80 (C. albicans CA1) of 0.25 µg/mL (≈ 0.716 µM), an MIC80 (A. fumigatus 1161) of 0.125 µg/mL (≈ 0.358 µM) and an MIC80 (C. albicans DSY654) of 0.25 µg/mL (≈ 0.716 µM). For the same molecule, the MIC80 (C. albicans CA3) was 0.25 µg/mL (≈ 0.716 µM), the MIC80 (C. albicans F5) was 0.25 µg/mL (≈ 0.716 µM) and the MIC80 (C. neoformans 108) was 0.031 µg/mL (≈ 0.0888 µM). For the same molecule, the MIC80 (C. albicans 28A) was 0.25 µg/mL (≈ 0.716 µM), the MIC80 (C. albicans YEM13) was 1 µg/mL (≈ 2.86 µM) and the MIC80 (C. albicans 24g) was 0.25 µg/mL (≈ 0.716 µM). The MIC80 (C. albicans 28I) was 0.5 µg/mL (≈ 1.43 µM), the MIC80 (C. tropicalis CT2) was 0.5 µg/mL (≈ 1.43 µM) and the MIC80 (C. albicans YEM15) was 1 µg/mL (≈ 2.86 µM). For the same molecule, the MIC80 (C. albicans 28D) was 0.25 µg/mL (≈ 0.716 µM), the MIC80 (C. albicans 11e) was 0.5 µg/mL (≈ 1.43 µM) and the MIC80 (C. albicans CA4) was 0.25 µg/mL (≈ 0.716 µM). It also gave an MIC80 (C. albicans 11f) of 0.25 µg/mL (≈ 0.716 µM), an MIC (C. neoformans H99) of 0.031 µg/mL (≈ 0.0888 µM) and an MIC (A. fumigatus AF293) of 0.125 µg/mL (≈ 0.358 µM). For the same molecule, the MIC (C. albicans SC5314 [1]) was 0.5 µg/mL (≈ 1.43 µM), the MIC80 (C. albicans G5) was 1 µg/mL (≈ 2.86 µM) and the MIC80 (C. albicans Gu5) was 1 µg/mL (≈ 2.86 µM). For the same molecule, the IC50 [2] was 1.39 µg/mL (≈ 3.98 µM), the “Selectivity index HepG2” value [3] was 2.778 and the MFC (C. albicans SC5314 [4]) was 64 µg/mL (≈ 183 µM). The “Selectivity index 16HBE” value [5] was 2.858, the “Selectivity index HK2” value [6] was 6.918 and the IC50 at 48 h ([7]; 16HBE cells (bronchial epithelial cell line), 16HBE cells) was 1.43 µg/mL (≈ 4.09 µM). It also gave an IC50 at 48 h ([7]; HK2 cells (renal epithelial cell line), HK2 cells) of 3.46 µg/mL (≈ 9.9 µM), an MIC80 (C. krusei CK1) of 0.5 µg/mL (≈ 1.43 µM) and an MIC80 (C. parapsilosis CP001) of 0.5 µg/mL (≈ 1.43 µM).
Work on `NC(=S)NN=Cc1ncccc1N` [Triapine, 3-aminopyridine-2-carboxaldehyde thiosemicarbazone, reference compound] yielded an MIC (C. neoformans H99) of 4 µg/mL (≈ 20.5 µM), an MIC (A. fumigatus AF293) of 32 µg/mL (≈ 164 µM) and an MIC (C. albicans SC5314 [1]) of 32 µg/mL (≈ 164 µM).
